Columns and labels:
Assay in all cases: relative viability (nuclei count vs DMSO), 5 days (fraction); higher = more cells survive
[1] = compound: CCn1c(-c2nonc2N)nc2cnc(Oc3cccc(NC(=O)c4ccc(OCCN5CCOCC5)cc4)c3)cc21 + CC1(C)CCC(c2ccc(Cl)cc2)=C(CN2CCN(c3ccc(C(=O)NS(=O)(=O)c4ccc(N[C@H](CCN5CCOCC5)CSc5ccccc5)c(S(=O)(=O)C(F)(F)F)c4)cc3)CC2)C1 [Navitoclax] (partner 0.5 µM)
Method in brief: (§1)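 Five library-drug doses in √10 steps were combined with a fixed anchor-drug dose, or a single drug was given alone, by pin tool to lung cancer cell lines in 1536-well plates the day after seeding. Nuclei were stained and counted after 5 days. Relative viability is the nuclei count in treated wells over that in vehicle wells, taken as the median of duplicate plates.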

Mirin + Decitabine = compound: N=C1NC(=O)/C(=C/c2ccc(O)cc2)S1 [Mirin] + Nc1ncn([C@H]2C[C@H](O)[C@@H](CO)O2)c(=O)n1 [Decitabine] (partner 2 µM)
Method in brief: as §1

Mirin + Vorinostat = compound: N=C1NC(=O)/C(=C/c2ccc(O)cc2)S1 [Mirin] + O=C(CCCCCCC(=O)Nc1ccccc1)NO [Vorinostat] (partner 1 µM)
Method in brief: as §1

Mirin + AZD7762 = compound: N=C1NC(=O)/C(=C/c2ccc(O)cc2)S1 [Mirin] + NC(=O)Nc1cc(-c2cccc(F)c2)sc1C(=O)N[C@H]1CCCNC1 [AZD7762] (partner 0.2 µM)
Method in brief: as §1

Row | Cell Line | relative viability ([1]; first compound 0.04 µM) | relative viability ([1]; first compound 0.1265 µM) | relative viability ([1]; first compound 0.4 µM) | relative viability ([1]; first compound 1.265 µM) | relative viability ([1]; first compound 4 µM) | relative viability (Mirin + Decitabine; first compound 0.25 µM) | relative viability (Mirin + Decitabine; first compound 0.7906 µM) | relative viability (Mirin + Decitabine; first compound 2.5 µM) | relative viability (Mirin + Decitabine; first compound 7.906 µM) | relative viability (Mirin + Decitabine; first compound 25 µM) | relative viability (Mirin + Vorinostat; first compound 0.25 µM) | relative viability (Mirin + Vorinostat; first compound 0.7906 µM) | relative viability (Mirin + Vorinostat; first compound 2.5 µM) | relative viability (Mirin + Vorinostat; first compound 7.906 µM) | relative viability (Mirin + Vorinostat; first compound 25 µM) | relative viability (Mirin + AZD7762; first compound 0.25 µM) | relative viability (Mirin + AZD7762; first compound 0.7906 µM) | relative viability (Mirin + AZD7762; first compound 2.5 µM) | relative viability (Mirin + AZD7762; first compound 7.906 µM) | relative viability (Mirin + AZD7762; first compound 25 µM)
1 | LOU-NH91 | 0.8 | 0.597 | 0.557 | 0.392 | 0.447 | 0.799 | 0.843 | 0.874 | 0.9 | 1.03 | 0.908 | 0.902 | 1 | 0.843 | 1.16 | 0.799 | 0.782 | 0.754 | 0.713 | 0.854
2 | PC-3 [JPC-3] | 0.846 | 0.814 | 0.801 | 0.866 | 0.779 | 0.818 | 0.825 | 0.825 | 0.76 | 0.836 | 0.919 | 0.722 | 0.81 | 0.86 | 1.18 | 0.88 | 0.782 | 0.896 | 0.843 | 0.989
3 | NCI-H2126 | 0.87 | 0.822 | 0.825 | 0.917 | 0.84 | 0.556 | 0.534 | 0.586 | 0.557 | 0.461 | 0.852 | 0.645 | 0.679 | 0.792 | 0.713 | 1.11 | 1.03 | 1.05 | 1.11 | 0.951
4 | LU99A | 0.98 | 0.82 | 0.841 | 0.849 | 0.741 | 0.877 | 0.785 | 0.94 | 0.892 | 0.736 | 0.44 | 0.44 | 0.474 | 0.457 | 0.33 | 0.351 | 0.349 | 0.355 | 0.294 | 0.28
5 | BEN | 0.0536 | 0.0704 | 0.0589 | 0.0468 | 0.0489 | 0.553 | 0.711 | 0.661 | 0.67 | 0.522 | 0.473 | 0.58 | 0.6 | 0.555 | 0.542 | 0.711 | 0.711 | 0.735 | 0.574 | 0.494
6 | NCI-H1975 | 0.827 | 0.818 | 0.763 | 0.372 | 0.286 | 0.427 | 0.329 | 0.402 | 0.36 | 0.401 | 0.696 | 0.777 | 0.718 | 0.703 | 0.733 | 0.699 | 0.91 | 0.689 | 0.729 | 0.725
7 | NCI-H460 | 1.07 | 1.01 | 1.13 | 0.393 | 0.26 | 0.517 | 0.504 | 0.467 | 0.505 | 0.539 | 0.709 | 0.824 | 0.666 | 0.687 | 0.685 | 0.625 | 0.921 | 0.665 | 0.661 | 0.876
8 | HCC-78 | 1.05 | 0.782 | 0.848 | 0.878 | 0.926 | 0.514 | 0.764 | 0.698 | 0.565 | 0.657 | 0.41 | 0.473 | 0.472 | 0.399 | 0.471 | 0.583 | 0.863 | 0.671 | 0.658 | 0.68
9 | NCI-H1915 | 0.829 | 0.797 | 0.764 | 0.575 | 0.762 | 0.275 | 0.252 | 0.278 | 0.255 | 0.255 | 0.527 | 0.498 | 0.558 | 0.341 | 0.52 | 0.674 | 0.726 | 0.712 | 0.59 | 0.745

— the supplement of paper PMC10307832
